Laboratory results taken from patent US6028083A, “Esters of (+)-α-(2,3-dimethoxyphenyl)-1-[2-(4-fluorophenyl) ethyl]-4-piperidinemethanol” (Hoechst Marion Roussel, Inc., priority 1997, dated 2000).

Legend:
in vivo = test: in vivo; set-up: species or system male Wistar rats; conditions: rat, im, 120 mg/kg
Procedure: Rats are anesthetized with a lethal i.p. dose of nembutal and blood collected at 3 and 6 hours, and various days post-dose (n=5 for each timepoint) in heparinized vacutainers. Blood samples are centrifuged for 30 minutes at 5 C and at approximately 2700 rpm. Plasma is removed and stored at -20° C. until assay. The plasma samples are analyzed by an appropriate HPLC method. Brains will also be collected at the above timepoints and stored at -80° C. until analyzed by the appropriate HPLC method.

5HT2A receptor [1] = test: Antagonism of DOI-induced behaviors in rats; type: in vivo, Male Sprague-Dawley rats; conditions: single i.m. injection in sesame oil, 120 mg/kg equivalent to MDL 100,907, DOI 3.0 mg/kg i.p.
Source text: The compound of the present invention used in this test was (+)-α-(2,3-Dimethyoxyphenyl)-1-[2-(4-fluorophenyl)ethyl]-4-piperidinemethanol decanoate--Example 4 herein.-- The 5-HT2A/2C agonist (±)-DOI HCl (1-(2,5-dimethoxy-4-iodophenyl)-2-aminopropane hydrochloride) induces several quantifiable behaviors in rats. These behaviors include "shakes" (a quick head and body shake, a.k.a. wet dog shakes), "forepaw tapping" (rapid forepaw treading) and "skin-jerks" (paraspinal muscle contractions or dorsal skin-shrugging).
Male Sprague-Dawley rats (180±50 g) were housed seven per cage and allowed 1 week to acclimate to the vivarium. Food and water were freely available. The temperature and light cycle (12 h on-12 h off)were automatically maintained. Individual rats were tested once. Each testing group contained seven animals. Experiments took place in the vivarium room where the animals were housed.
Vehicle control animals were injected with sesame oil alone. (±)-DOI HCl (3.0 mg/kg, 1 mL/kg body weight) was dissolved in distilled water with the aid an ultrasonic bath, and injected intraperitoneally on appropriate testing days.
(+)-α-(2,3-Dimethyoxyphenyl)-1-[2-(4-fluorophenyl)ethyl]-4-piperidinementhanol decanoate-treated rats were tested for antagonism of DOI-induced behaviors 1, 5, 7, 14, 21, 28 and 40 days after the single (+)-α-(2,3-Dimethyoxyphenyl)-1-[2-(4-fluorophenyl)ethyl]-4-piperidinementhanol decanoate intramuscular injection. Each rat was tested once. Immediately after DOI injection rats were placed under inverted clear plastic boxes (28 L×25 W×25 H cm) which were arranged on top of clean absorbent paper. Rats were continuously watched by trained observers (blind to treatment) for 30 minutes for the occurrence of DOI-induced behaviors (shakes, skin-jerks and forepaw tapping bouts) and then returned to their home cages. Rats were later used for pharmacokinetic studies. The frequencies of DOI-induced behaviors were recorded and then summed to provide a single behavioral score for each animal.
The mean and standard error of the behavioral scores of each group was determined. […]

[2] = Chronic Mild Stress Model of Depression (CMS), consumption of 1% sucrose solution; type: in vivo, Male Wistar rats
Source text: CMS uses mild stressors, such as food and water deprivation, small temperature changes, changes of cage mates, etc. Over a period of weeks of exposure to the mild stressors, the animals gradually reduce their consumption of a highly preferred sucrose solution which persists (in untreated animals) for several weeks following the cessation of stress. This decreased sensitivity to reward (the sucrose solution) reflects anhedonia, a symptom of a Major Depressive Episode (see for example, Behavioral Pharmacol.5: Suppl. 1, p. 86 (1994) where lithium, carbamazepine and ketoconazole were evaluated in CMS; Psychopharmacology 93:358-364 (1987) where a tricyclic antidepressant was evaluated in CMS; Behavioral Pharmacology:5:344-350 (1994) where a catechol-O-methyl transferase inhibitor was evaluated in CMS).
Male Wistar rats were brought into the laboratory two months before the start of the experiment at which time they weighed approximately 300 grams. Except as described below, the animals were singly housed, with food a water freely available, and maintained on a 12 hour light/dark cycle (lights on at 8 AM) at a temperature of 22±° C.
The animals were first trained to consume a 1% sucrose solution; training consisted of eight 1 hour baseline tests in which sucrose was presented, in the home cage, following 14 hours food and water deprivation; intake was measured by weighing pre-weighed bottles containing the sucrose solution at the end of the test. Subsequently, sucrose consumption was monitored, under similar conditions, at weekly intervals throughout the whole experiment.
On the basis of their sucrose intakes in the final baseline test, the animals were divided into two matched groups. One group of animals was subjected to a chronic mild stress procedure for a period of 9 consecutive weeks. Each week of stress regime consisted of: two periods of food or water deprivation (12 and 14 hour), two periods of 45 degree cage tilt (12 and 14 h), two periods of intermittent overnight illumination (lights on and off every 2 hours), two 14 hour periods of soiled cage (200 ml water in sawdust bedding), two 14 hour periods of paired housing, two 14 hour periods of low intensity stroboscopic illumination (150 flashes/min). Stressors were applied continuously throughout the day and night, and scheduled randomly. […] They were deprived of food and water for the 14 hours preceding each sucrose test, but otherwise food and water were freely available in the home cage. […] All drug injections were in a volume of 1 ml/kg body weight. Drugs were administered at 10 AM and sucrose tests were carried out 24 hours following the last drug treatment. After five weeks, the treatments were terminated and after one week of withdrawal a final sucrose test was carried out. Stress was continued throughout the period of treatment and withdrawal.
Results were analyzed by multiple analysis of variance, followed by Fisher's LSD test for post hoc comparisons of means.

platelets = conditions: U.S. Pat. No. 5,561,144, cited from earlier work
[3] = test system: dopamine efflux in the medial prefrontal cortex; conditions: European Journal of Pharmacology 273: 273-279 (1995); cited from earlier work
myocardial tissue = conditions: no source or data given; cited from earlier work
5HT2A receptor [4] = conditions: cited from earlier work
[5] = test system: PPI (prepulse inhibition); conditions: Psychopharmacology 124: 107-116 (1996); cited from earlier work
5HT2A receptor [6] = conditions: literature (Pranzatelli 1990; Wettstein et al. 1996); cited from earlier work
[7] = imipramine 10 mg/kg ip daily, five weeks
[8] = MDL 100,907 0.002, 0.02 and 0.2 mg/kg orally
[9] = MDL 100,907 0.002, 0.02 and 0.2 mg/kg orally, NS
[10] = MDL 100,907 0.02 and 0.2 mg/kg orally

Compound: CCCCCCCCCC(=O)O[C@@H](c1cccc(OC)c1OC)C1CCN(CCc2ccc(F)cc2)CC1 [Example 4, (+)-α-(2,3-Dimethyoxyphenyl)-1-[2-(4-fluorophenyl)ethyl]-4-piperidinementhanol decanoate]
- concentration at 3 h (in vivo): 54.2 ± 13.3 ng/mL
- concentration at 6 h (in vivo): 53.8 ± 17.1 ng/mL
- concentration at 24 h (in vivo): 54.1 ± 18 ng/mL
- concentration at 48 h (in vivo): 21.6 ± 7.39 ng/mL
- concentration at 72 h (in vivo): 39 ± 5.64 ng/mL
- concentration at 96 h (in vivo): 52 ± 12.9 ng/mL
- concentration at 144 h (in vivo): 41.9 ± 14.6 ng/mL
- concentration at 192 h (in vivo): 28.7 ± 9.16 ng/mL
- concentration at 288 h (in vivo): 21 ± 12.8 ng/mL
- concentration at 360 h (in vivo): 52.4 ± 15.2 ng/mL
- concentration at 456 h (in vivo): 40.1 ± 8.44 ng/mL
- concentration at 528 h (in vivo): 46.3 ± 9.31 ng/mL
- concentration at 624 h (in vivo): 38.9 ± 9.35 ng/mL
- concentration at 696 h (in vivo): 43.7 ± 10.8 ng/mL
- concentration at 984 h (in vivo): 24.1 ± 9.15 ng/mL
- antagonism of DOI-induced behavior at day 40 (5HT2A receptor [1]): no longer significant
- duration of significant antagonism of DOI-induced behavior (5HT2A receptor [1]; p<=0.05): 28 days
- antagonism of DOI-induced behavior (5HT2A receptor [1]; through day 28): Significantly antagonized DOI-induced behavior

Compound: CN(C)CCCN1c2ccccc2CCc2ccccc21 [Imipramine]
- sucrose intake in stressed animals, F(1,84) ([2]; imipramine 10 mg/kg ip daily): 16.776
- sucrose intake in stressed animals, p (treatment) ([2]; imipramine 10 mg/kg ip daily): < 0.001
- sucrose intake of drug-treated stressed animals vs drug- and saline-treated controls ([2]; imipramine 10 mg/kg ip daily, after five weeks of treatment): no significant differences
- effect on sucrose intake in control animals [2, 7]: no significant effect
- effect on sucrose intake in stressed animals [2, 7]: gradual increase of sucrose intake
- sucrose intake in stressed animals after withdrawal ([2]; imipramine 10 mg/kg ip daily, one week after withdrawal): maintained at similar level
- sucrose intake in control animals, F(1,84) ([2]; imipramine 10 mg/kg ip daily, NS): 0.364

Compound: COc1cccc([C@H](O)C2CCN(CCc3ccc(F)cc3)CC2)c1OC [MDL 100,907, (+)-α-(2,3-dimethoxyphenyl)-1-[2-(4-fluorophenyl)ethyl]-4-piperidinemethanol]
- effect on rate at which platelets aggregate (platelets): decreases the rate at which platelets aggregate
- prevention of acute thrombosis (platelets; especially of the coronary arteries): effective in the prevention of acute thrombosis
- influence on dopamine efflux in the medial prefrontal cortex [3]: tonic inhibitory influence on dopamine efflux
- anti-arrhythmic class (Vaughan Williams) (myocardial tissue): Class III anti-arrhythmic activity
- effect on action potential of myocardial tissue (myocardial tissue): increases the duration of the action potential of myocardial tissue
- 5HT2A receptor antagonist potency (5HT2A receptor [4]): potent 5HT2A receptor antagonist
- effect on sucrose intake throughout the whole treatment period ([2]; MDL 100,907 0.002 mg/kg orally): no significant effect
- sucrose intake in stressed animals vs Week 0 ([2]; MDL 100,907 0.02 mg/kg (after two weeks) and 0.2 mg/kg (after three weeks) orally): significantly increased from initial scores
- sucrose intake in stressed animals, Treatment effect F(3,168) [2, 8]: 22.567
- sucrose intake in stressed animals, Treatment effect p [2, 8]: < 0.001
- sucrose intake in stressed animals, Treatment x Weeks interaction F(15,158) [2, 8]: 1.559
- sucrose intake in stressed animals, Treatment x Weeks interaction p [2, 8]: 0.05
- effect on sucrose intake in control animals ([2]; MDL 100,907 0.002, 0.02 and 0.2 mg/kg orally daily, five weeks): no significant effect
- sucrose intake in control animals, Treatment effect F(3,168) [2, 9]: 0.821
- sucrose intake in control animals, Treatment x Weeks interaction F(15,168) [2, 9]: 0.499
- sucrose intake of stressed animals vs vehicle-treated controls at Week 5 [2, 10]: comparable to that of vehicle-treated controls
- sucrose intake of stressed animals vs vehicle-treated stressed animals at Week 5 [2, 10]: significantly higher than that of vehicle-treated stressed animals
- sucrose intake one week after withdrawal ([2]; MDL 100,907 all doses, control and stressed animals): not significantly changed
- effect on CMS-induced deficit in sucrose intake in stressed animals ([2]; MDL 100,907 orally daily, five weeks): gradually reversed the CMS-induced deficit in sucrose intake
- effect on disrupted PPI [5]: restore disrupted PPI

Compound: Cc1nc2sccn2c(=O)c1CCN1CCC(=C(c2ccc(F)cc2)c2ccc(F)cc2)CC1 [ritanserin]
- block of the behavioral effects of DOI (5HT2A receptor [6]): dose-dependently block the behavioral effects of DOI
